Test results published in ChEMBL document CHEMBL4184134, “Daryamide Analogues from a Marine-Derived Streptomyces species” (J Nat Prod, 2017).
Active and inactive are the calls of the source.

Columns and labels:
Pseudomonas aeruginosa = experiment: Antimicrobial activity against Pseudomonas aeruginosa incubated for 24 hrs by paper disk method; type: functional, organism-based
Bacillus subtilis = experiment: Antimicrobial activity against Bacillus subtilis at incubated for 24 hrs by paper disk method; type: functional, organism-based
Homo sapiens = organism: Homo sapiens; experiment: Cytotoxicity against human HCC366 cells assessed as reduction in cell viability at 1 nM to 50 uM incubated for 96 hrs by Cell-titer Glo reagent based assay; type: functional
A549 = experiment: Cytotoxicity against human A549 cells assessed as reduction in cell viability at 1 nM to 50 uM incubated for 96 hrs by Cell-titer Glo reagent based assay; type: functional
HCC44 = experiment: Cytotoxicity against human HCC44 cells assessed as reduction in cell viability at 1 nM to 50 uM incubated for 96 hrs by Cell-titer Glo reagent based assay; type: functional
NCI-H2122 = experiment: Cytotoxicity against human NCI-H2122 cells assessed as reduction in cell viability at 1 nM to 50 uM incubated for 96 hrs by Cell-titer Glo reagent based assay; type: functional

Measured: Activity

CC(C)/C=C/C=C/C(=O)NC1=C[C@@](O)(CCC(N)=O)[C@H]2O[C@H]2[C@@H]1O
inactive: Pseudomonas aeruginosa | Bacillus subtilis | Homo sapiens | A549 | HCC44 | NCI-H2122

CC(C)C/C=C/C=C/C(=O)N(CCO)c1cc(CCC(=O)O)c(O)cc1O
inactive: Pseudomonas aeruginosa | Bacillus subtilis | Homo sapiens | A549 | HCC44 | NCI-H2122

CC(C)C/C=C/C=C/C(=O)NC1=C[C@@](O)(CCC(N)=O)[C@H]2O[C@H]2[C@@H]1O
inactive: Pseudomonas aeruginosa | Bacillus subtilis | Homo sapiens | A549 | HCC44 | NCI-H2122

CC(C)C/C=C/C=C/C(=O)N[C@H]1CCCNC1=O
inactive: Pseudomonas aeruginosa | Bacillus subtilis | Homo sapiens | A549 | HCC44 | NCI-H2122

CCC/C=C/C=C/C(=O)NC1=C[C@@](O)(CCC(N)=O)[C@H]2O[C@H]2[C@@H]1O
inactive: Pseudomonas aeruginosa | Bacillus subtilis | Homo sapiens | A549 | HCC44 | NCI-H2122
